Assays:
Test in all cases: Cell proliferation inhibition experiment, CellTiter-Glo (CTG) method
Assay type in all cases: cell-based
A-431 = conditions: Homo sapiens, A-431, 72 h, A-431 cells, 3 days
Procedure, shortened: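 Cells seeded overnight at 37 °C, 5% CO2, then treated with nine 3-fold dilutions in triplicate, top 30 μM for A-431 and 1.111 μM for NCI-H1975 and PC-9; solvent control. After 3 days, viability read by CellTiter-Glo luminescence; IC50 from non-linear sigmoidal fit of survival rate.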

NCI-H1975 = conditions: for IC50: Homo sapiens, NCI-H1975, 72 h, NCI-H1975 cells, CTG, 3 days; for A-431/NCI-H1975 Selectivity: ratio of A-431 IC50 to NCI-H1975 IC50
Procedure, shortened: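 NCI-H1975 cells with viability above 90% by trypan blue were seeded at 90 μL per well in black 96-well plates and incubated overnight at 37° C., 5% CO2. Compounds were added at nine concentrations in triplicate, and viability was measured with CellTiter-Glo luminescence on EnVision. IC50 came from non-linear S-curve fitting in GraphPad Prism 5.0.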

PC-9 = conditions: Homo sapiens, PC-9, 72 h, PC-9 cells, 3 days
Procedure, shortened: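 Cells in log-phase growth (viability above 90% by trypan blue) were seeded at 90 μL per well in black-walled, clear-bottom 96-well plates and incubated overnight at 37° C., 5% CO2. A T0 plate was read the next day. Test compounds were added at nine concentrations in triplicate with a solvent control. Viability was measured by CellTiter-Glo luminescence on EnVision, and IC50 came from non-linear S-curve fitting in GraphPad Prism 5.0.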

Row | IC50 (A-431) [µM] | IC50 (NCI-H1975) [µM] | IC50 (PC-9) [µM] | Structure (SMILES) | A-431/NCI-H1975 Selectivity (NCI-H1975)
1 | 1.58 | 0.0321 | 0.0221 | C=CC(=O)Nc1cc(Nc2cc(-c3ccc4c(cnn4C)c3)ncn2)c(OC)cc1N(C)CCN1C[C@@H](C)N(C)[C@@H](C)C1 [compound 125] | 49.2
2 | 0.945 | 0.0137 | 0.0108 | C=CC(=O)Nc1cc(Nc2cc(-c3ccc4c(cnn4CC)c3)ncn2)c(OC(F)F)cc1N(C)CCN(CC)CC [compound 96] | 69
3 | 2.27 | 0.132 | 0.0309 | C=CC(=O)Nc1cc(Nc2nccc(-c3ccc4c(cnn4C)c3)n2)c(OC)cc1N(C)CCN1CCN(C(C)=O)CC1 [compound 254] | 17.2
4 | 1.53 | 0.0197 | 0.0167 | C=CC(=O)Nc1cc(Nc2cc(-c3ccc4c(cnn4C)c3)ncn2)c(OC)cc1N1CCN(C2CCOC2)CC1 (centres unmarked) [compound 214] | 77.6
5 | 1.43 | 0.0323 | 0.0196 | C=CC(=O)Nc1cc(Nc2cc(-c3ccc4c(cnn4C)c3)ncn2)c(OC)cc1N1CCN(CC)[C@@H](C)C1 [compound 28] | 44.2
6 | 1.44 | 0.0907 | 0.121 | C=CC(=O)Nc1cccc(Nc2nc(Nc3ccc4c(cnn4C)c3)ncc2F)c1 [known compound 296, reference compound] | 15.9
7 | 2.56 | 0.0331 | 0.0278 | C=CC(=O)Nc1cc(Nc2cc(-c3ccc4c(cnn4C)c3)ncn2)c(OC)cc1N(C)C1CCC(N(C)C)CC1 (centres unmarked) [compound 71] | 77.3
8 | 1.81 | 0.0557 | 0.0799 | C=CC(=O)Nc1cc(Nc2cc(-c3ccc4c(cnn4C)c3)ncn2)c(OC)cc1N1CCN(CC)[C@H](C)C1 [compound 29] | 32.6
9 | 2.04 | 0.047 | 0.0567 | C=CC(=O)Nc1cc(Nc2cc(-c3ccc4cnn(C)c4c3)ncn2)c(OC)cc1N1CCN(CCO)CC1 [compound 274] | 43.4
10 | 1.53 | 0.0149 | 0.0199 | C=CC(=O)Nc1cc(Nc2nccc(-c3ccc4c(cnn4C)c3)n2)c(OC(F)F)cc1N(C)CCN(C)CC [compound 259] | 102.6
11 | 2.61 | 0.137 | 0.0236 | C=CC(=O)Nc1cc(Nc2cc(-c3ccc4cnn(C)c4c3)ncn2)c(OC)cc1N1CCC(OC)CC1 [compound 45] | 19.0
12 | 2.08 | 0.108 | 0.0247 | C=CC(=O)Nc1cc(Nc2cc(-c3ccc4nc(C)sc4c3)ncn2)c(OC)cc1N1CCN(CCN(C)C)CC1 [compound 190] | 19.3
13 | 1.32 | 0.0128 | 0.0201 | C=CC(=O)Nc1cc(Nc2nccc(-c3ccc4c(cnn4C)c3)n2)c(OC(F)F)cc1N(C)CCN(C)C [compound 260] | 103.5
14 | 9.33 | 0.186 | 0.0109 | C=CC(=O)Nc1cc(Nc2cc(-c3ccc4c(cnn4C)c3)ncn2)c(OC)cc1N1CCN(CC(F)(F)F)CC1 [compound 32] | 50.1
15 | 3.31 | 0.0759 | 0.0897 | C=CC(=O)Nc1cc(Nc2cc(-c3ccc4c(cnn4C)c3)ncn2)c(OC)cc1N(C)CCN1CCOCC1 [compound 38] | 43.7
16 | 1.47 | 0.019 | 0.0235 | C=CC(=O)Nc1cc(Nc2nccc(-c3ccc4cnn(C)c4c3)n2)c(OC(F)F)cc1N(C)CCN(C)C [compound 177] | 77.3

Row | IC50 (A-431) [µM] | IC50 (NCI-H1975) [µM] | IC50 (PC-9) [µM] | Structure (SMILES) | A-431/NCI-H1975 Selectivity (NCI-H1975)
17 | 0.885 | 0.013 | 0.0076 | C=CC(=O)Nc1cc(Nc2cc(-c3ccc4cnn(C)c4c3)ncn2)c(OC)cc1N1CCC(N2CCC(OC)CC2)CC1 [compound 205] | 
18 | 0.987 | 0.0117 | 0.0138 | C=CC(=O)Nc1cc(Nc2cc(-c3ccc4c(cnn4C)c3)ncn2)c(OCC)cc1N(C)CCN(C)CC [compound 140] | 84.4
19 | 0.854 | 0.0205 | 0.0185 | C=CC(=O)Nc1cc(Nc2cc(-c3ccc4c(cnn4C)c3)ncn2)c(OCC)cc1N(C)CCN(CC)CC [compound 93] | 41.7
20 | 1.64 | 0.0343 | 0.0114 | C=CC(=O)Nc1cc(Nc2cc(-c3ccc4cnn(C)c4c3)ncn2)c(OC)cc1OCCN(C)C [compound 169] | 47.9
21 | 2.99 | 0.0371 | 0.0374 | C=CC(=O)Nc1cc(Nc2nccc(-c3ccc4c(cnn4C)c3)n2)c(OC(F)F)cc1N(C)CCNC(C)(C)C [compound 247] | 80.5
22 | 0.779 | 0.0081 | 0.0085 | C=CC(=O)Nc1cc(Nc2cc(-c3ccc4c(cnn4C)c3)ncn2)c(OCC)cc1N(C)C1CCN(C)C1 (centres unmarked) [compound 66] | 96.2
23 | 1.45 | 0.0694 | 0.0598 | C=CC(=O)Nc1cc(Nc2cc(-c3ccc4cnn(C)c4c3)ncn2)c(OC)cc1N1CCN(C)[C@H](C)C1 [compound 51] | 20.8
24 | 0.988 | 0.0344 | 0.0275 | C=CC(=O)Nc1cc(Nc2cc(-c3ccc4c(cnn4C(C)C)c3)ncn2)c(OC)cc1N1CCC(N2CCN(C)CC2)CC1 [compound 84] | 28.7
25 | 1.27 | 0.01 | 0.0089 | C=CC(=O)Nc1cc(Nc2cc(-c3ccc4c(cnn4C)c3)ncn2)c(OC)cc1N1CCN(CCN(C)C)CC1 [compound 59] | 
26 | 0.514 | 0.0151 | 0.0101 | C=CC(=O)Nc1cc(Nc2cc(-c3cc(C(F)(F)F)c4c(cnn4C)c3)ncn2)c(OC)cc1N(C)CCN(C)C [compound 4] | 34.0
27 | 2.77 | 0.0464 | 0.0296 | C=CC(=O)Nc1cc(Nc2cc(-c3ccc4c(cnn4C)c3)ncn2)c(OC)cc1N1CCN(C)C[C@H]1C [compound 21] | 59.7
28 | 1.72 | 0.0321 | 0.0194 | C=CC(=O)Nc1cc(Nc2cc(-c3cc(F)c4c(cnn4C)c3)ncn2)c(OC)cc1N(C)CCN(C)C [compound 6] | 53.7
29 | 1.44 | 0.0204 | 0.0195 | C=CC(=O)Nc1cc(Nc2cc(-c3cc4cnn(C)c4cc3F)ncn2)c(OC)cc1N(C)C1CCN(C)C1 (centres unmarked) [compound 195] | 70.5
30 | 1.47 | 0.0856 | 0.088 | C=CC(=O)Nc1cc(Nc2cc(-c3ccc4cnn(C)c4c3)ncn2)c(OC)cc1N1CCN(CC)[C@H](C)C1 [compound 49] | 17.2
31 | 1.14 | 0.0298 | 0.0167 | C=CC(=O)Nc1cc(Nc2cc(-c3ccc4cnn(C)c4c3)ncn2)c(OC)cc1N1CCN(C)CC1 [compound 43] | 38.3
